Some test systems named below: OVCAR-3 ovarian; CCRF-CEM leukemia; BT-549 breast; SF-539 CNS; MDA-MB-231 breast; IGROV1 ovarian; M14 melanoma; UO-31 renal; CAKI-1 renal; MDA-N; HCC-2998 colon; MOLT-4 leukemia.
Common to all, as to test: NCI tumour cell line growth inhibition, 48 h

SMILES strings stand for the structures.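 Five compound concentrations were applied to cells in 96-well plates for 48 hours; endpoints were derived by simple linear interpolation of the resulting dose-response curve. TGI denotes the concentration required for complete inhibition of growth.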

As to `CC(=O)c1csc2c1C(=O)c1ccccc1C2=O`, the TGI in the assay with OVCAR-3 ovarian is greater than 100 µM; in the assay on CCRF-CEM leukemia it was 4.01 µM; in the assay on BT-549 breast, 3.01 µM; with SF-539 CNS, 5.65 µM; in the assay on MDA-MB-231 breast, greater than 62.9 µM; with IGROV1 ovarian it was 6.42 µM. Also, the TGI is 2.65 µM in the assay on M14 melanoma; 6.13 µM with UO-31 renal; 18.2 µM with CAKI-1 renal; 4.21 µM in the assay on MDA-N; 3.2 µM in the assay on HCC-2998 colon; greater than 66.7 µM in the assay on MOLT-4 leukemia.
Regarding `C[N+](C)(CCNc1ccc(NCC[N+](C)(C)Cc2ccc([N+](=O)[O-])cc2)c2c1C(=O)c1c(O)ccc(O)c1C2=O)Cc1ccc([N+](=O)[O-])cc1`, the TGI with OVCAR-3 ovarian, in the assay with CCRF-CEM leukemia, in the assay with BT-549 breast, in the assay with SF-539 CNS, in the assay with MDA-MB-231 breast and in the assay on IGROV1 ovarian was greater than 50 µM throughout. The TGI in the assay on M14 melanoma is greater than 50 µM; in the assay with UO-31 renal it was greater than 50 µM; with CAKI-1 renal, greater than 50 µM; in the assay on MDA-N, greater than 50 µM; in the assay on HCC-2998 colon, greater than 50 µM; in the assay with MOLT-4 leukemia, greater than 5 µM.
Turning to `O=C1NC(N2CCCC(CO)C2)=N/C1=C\c1cccs1` (configuration not stated), the TGI in the assay with OVCAR-3 ovarian, in the assay with CCRF-CEM leukemia, in the assay with BT-549 breast, in the assay with SF-539 CNS, in the assay with MDA-MB-231 breast and in the assay with IGROV1 ovarian was greater than 100 µM throughout. Moreover, the TGI with M14 melanoma, in the assay with UO-31 renal, in the assay with CAKI-1 renal, in the assay with MDA-N, in the assay with HCC-2998 colon and with MOLT-4 leukemia was greater than 100 µM in each case.
On to `COCN1C(=O)[C@@H]2CCCN2C(=O)c2ccc(N)cc21`, for which the TGI in the assay on OVCAR-3 ovarian, with CCRF-CEM leukemia, in the assay with BT-549 breast, with SF-539 CNS, in the assay with MDA-MB-231 breast and with IGROV1 ovarian was greater than 100 µM in each case. Moreover, the TGI in the assay with M14 melanoma, in the assay with UO-31 renal, in the assay on CAKI-1 renal, with MDA-N, in the assay with HCC-2998 colon and in the assay with MOLT-4 leukemia was greater than 100 µM throughout.
`Nc1nc(N)c2nc(CN(C=O)c3ccc(C(=O)O)cc3)cnc2n1`: the TGI with OVCAR-3 ovarian is greater than 100 µM; in the assay on CCRF-CEM leukemia, greater than 100 µM; with BT-549 breast it was greater than 94.7 µM; with SF-539 CNS it was greater than 100 µM; in the assay on MDA-MB-231 breast, greater than 100 µM; with IGROV1 ovarian it was greater than 100 µM. For the same compound, the TGI in the assay with M14 melanoma, in the assay with UO-31 renal, in the assay on CAKI-1 renal, in the assay on MDA-N, in the assay with HCC-2998 colon and in the assay on MOLT-4 leukemia was greater than 100 µM each time.
`O=c1cc(NNc2cccc3ccccc23)[nH]c(=O)[nH]1`: the TGI in the assay with OVCAR-3 ovarian worked out at 27.3 µM; in the assay on CCRF-CEM leukemia, 81.9 µM; in the assay on BT-549 breast it was 30.2 µM; in the assay with SF-539 CNS, 29 µM; in the assay with MDA-MB-231 breast it was 26.2 µM; with IGROV1 ovarian, 29.2 µM. Also, the TGI in the assay with M14 melanoma worked out at 29.8 µM; in the assay with UO-31 renal, 29.8 µM; in the assay with CAKI-1 renal it was 28.5 µM; in the assay with MDA-N, 24.4 µM; in the assay with HCC-2998 colon, 35.6 µM; with MOLT-4 leukemia, 56.8 µM.
On to `NC(CCC(=O)c1ccccn1)C(=O)O` (configuration not stated), for which the TGI in the assay on OVCAR-3 ovarian, with CCRF-CEM leukemia, in the assay on BT-549 breast, in the assay on SF-539 CNS, with MDA-MB-231 breast and in the assay with IGROV1 ovarian was greater than 100 µM throughout. Further, the TGI with M14 melanoma, with UO-31 renal, with CAKI-1 renal, in the assay with MDA-N, in the assay on HCC-2998 colon and with MOLT-4 leukemia was greater than 100 µM in each case.
On to `O/N=C\c1c2c(cc3c1CCC3)CCC2`, for which the TGI with OVCAR-3 ovarian, in the assay with CCRF-CEM leukemia, in the assay with BT-549 breast, in the assay on SF-539 CNS, in the assay on MDA-MB-231 breast and in the assay on IGROV1 ovarian was greater than 100 µM in each case. Moreover, the TGI in the assay on M14 melanoma, with UO-31 renal, in the assay with CAKI-1 renal, in the assay with MDA-N, with HCC-2998 colon and in the assay with MOLT-4 leukemia was greater than 100 µM throughout.
For the compound `CC(=O)O[C@H]1[C@@H](N2CCOCC2)C[C@H]2[C@@H]3CC=C4C[C@@H](N5CCCC5)CC[C@]4(C)[C@H]3CC[C@@]21C`, the TGI with OVCAR-3 ovarian, with CCRF-CEM leukemia, with BT-549 breast, with SF-539 CNS, with MDA-MB-231 breast and with IGROV1 ovarian was greater than 100 µM throughout. Further, the TGI in the assay on M14 melanoma, with UO-31 renal, in the assay on CAKI-1 renal, in the assay with MDA-N, in the assay with HCC-2998 colon and in the assay with MOLT-4 leukemia was greater than 100 µM throughout.
Turning to `Cc1ccc(C2=CC(=O)/C(=C\C(=O)c3ccc(Br)cc3)O2)c(C)c1`, the TGI is 16.1 µM in the assay on OVCAR-3 ovarian; greater than 100 µM in the assay with CCRF-CEM leukemia; 16.2 µM with BT-549 breast; 57.1 µM with SF-539 CNS; 26.8 µM in the assay on MDA-MB-231 breast; 40.4 µM in the assay with IGROV1 ovarian. Besides, the TGI in the assay on M14 melanoma is 35.3 µM; in the assay with UO-31 renal, 27.7 µM; with CAKI-1 renal, 9.79 µM; with MDA-N it was 19.9 µM; in the assay with HCC-2998 colon, 25.4 µM; in the assay with MOLT-4 leukemia, greater than 47.9 µM.
For the compound `NC(Cc1ccccc1)C(=O)OCN1C(=O)C2C3C=CC(C2C1=O)C1C(=O)N(COC(=O)C(N)Cc2ccccc2)C(=O)C31` (configuration not stated), the TGI in the assay on OVCAR-3 ovarian is greater than 100 µM; in the assay on CCRF-CEM leukemia it was 49.7 µM; with BT-549 breast, greater than 100 µM; with SF-539 CNS, greater than 100 µM; with MDA-MB-231 breast, greater than 100 µM; with IGROV1 ovarian, greater than 100 µM. The TGI with M14 melanoma is greater than 100 µM; in the assay with UO-31 renal, greater than 100 µM; in the assay with CAKI-1 renal, greater than 100 µM; with MDA-N, greater than 100 µM; in the assay on HCC-2998 colon, greater than 100 µM; in the assay on MOLT-4 leukemia, 51.3 µM.
